This note sets out measurements from patent US8227515B2, “Use of hydroxamic acid derivatives for the preparation of anti-tumour medicaments” (Italfarmaco S.p.A., priority 2003, dated 2012).

Where a name gives a salt, the structure may show the parent alone.

One assay concerns LoVo (Colon carcinoma). Kind of assay: Sulforhodamine B viable cell assay, 72 hours. It is filed as cell-based. The note with it: Homo sapiens. As for the experimental part:
(§1) Cell lines derived from human solid tumours of different histotype and stabilised in vitro were used in the following experiment. In particular, three cell lines from head and neck tumours (KB, Ca127 and Hep2), two cell lines derived from colon carcinomas (HT-29 and LoVo) and four cell lines derived from melanomas (Colo38, Pes41, Pes43 and Anad) were studied.
(§2) The cells were grown according to conventional methods in flasks containing synthetic culture medium added with fetal serum, at 37° C. under 5% CO2 atmosphere, then seeded in 96 wells plates and allowed to adhere for some hours. ITF 2357 was added in triplicate at increasing doses to each well and the cells were incubated for further 72 hours. Viable cells were labelled by dyeing with sulforhodamine B and their amount was determined by spectrophotometric evaluation of the dye content in each well. The effect of ITF 2357 was calculated as percentage of inhibition, at each concentration, of the dye incorporation in wells containing ITF 2357 compared with control wells (cells without drug). IC50 values of ITF 2357 were calculated by Software Calcusyn (Biosoft) according to dose-response curves.

In another assay the test system is Anad (Melanoma). As to the kind of experiment: Sulforhodamine B viable cell assay, 72 hours. It counts as cell-based. Conditions: Homo sapiens. As for the experimental part: as §1, §2
Another assay has as its system Hep-2 (Head-neck). Kind of assay: Sulforhodamine B viable cell assay, 72 hours. It is filed as cell-based. The note with it: Homo sapiens. How it is done:
as §1, §2

Another assay has as its system HT-29 (Colon carcinoma). Kind of assay: Sulforhodamine B viable cell assay, 72 hours. The note with it: Homo sapiens. It is filed as cell-based. As for the experimental part: as §1, §2
The next assay relates to Pes41 (Melanoma). Kind of assay: Sulforhodamine B viable cell assay, 72 hours. It is filed as cell-based. The note with it: Homo sapiens. As for the experimental part:
as §1, §2

The test system of a further assay is Pes43 (Melanoma). As to the kind of experiment: Sulforhodamine B viable cell assay, 72 hours. It counts as cell-based. Conditions: Homo sapiens. As for the experimental part:
as §1, §2

The test system of a further assay is KB (Head-neck). As to the kind of experiment: Sulforhodamine B viable cell assay, 72 hours. It counts as cell-based. Conditions: Homo sapiens. How it is done: as §1, §2
In a further assay the test system is Colo38 (Melanoma). As to the kind of experiment: Sulforhodamine B viable cell assay, 72 hours. It is filed as cell-based. Conditions: Homo sapiens. As for the experimental part: as §1, §2
For another assay, the system named is Cal27 (Head-neck). As to the kind of experiment: Sulforhodamine B viable cell assay, 72 hours. The note with it: Homo sapiens, CAL-27. It counts as cell-based. How it is done: as §1, §2
A further assay deals with murine melanoma B16-BL6. As to the kind of experiment: Growth of subcutaneous murine melanoma B16-BL6 in vivo. On the set-up: species or system mouse C57BL/6. The note with it: female C57BL/6 mice, oral, daily 6 days a week. An excerpt:
The anti-tumour effect of ITF 2357 was studied measuring the capacity of the compound to reduce the growth of the murine melanoma B16-BL6. B16-BL6 tumour is a highly metastatic variant (Sciumbata T. et al. Invasion and Metastasis 1996; 16: 132-143) of the native tumour B16 and it grows subcutaneously in the syngenic mouse C57BL/6 (Gutman M et al. Cancer Biother. 1994; 9(2): 163-170). B16-BL6 tumour cells were inoculated subcutaneously in female C57BL/6 mice (10 animals/group, weight 20-22 grams) at the dose of 2×10^5 cells/mouse. ITF 2357 dissolved in water was administered orally, at the indicated doses, 10 minutes before the inoculum of the tumour cells and then daily for 6 days a week. The tumour growth was expressed as tumour weight, measuring twice a week, by means of a calibre, the two perpendicular diameters of the nodules. The weight was calculated according to the formula: (diameter 1×diameter 2)^2/2 as described in Giavazzi R. et al. Cancer Res. 1986; 46: 1928-1933.

In a further assay the test system is KG-1 (myeloid leukaemia). Kind of assay: Tritiated thymidine incorporation, tumour cell growth inhibition. It is filed as cell-based. The note with it: 48 hours with compound, read-out: IC50 (50% cell growth inhibition). As for the experimental part: (§3) The anti-tumour effect of the compound of example 12 of EP 901465, 4-[6-(diethylaminomethyl)naphth-2-ylmethyloxycarbamoyl)] benzohydroxamic acid hydrochloride (ITF 2357), was tested in vitro by measuring the capacity of the compound to inhibit the growth of tumour cell lines of different histotype deriving from both solid tumours and haematological tumours. The cell lines used were: A549 (pulmonary carcinoma), MDA-MB435 (breast carcinoma) and KG-1 (myeloid leukaemia).
[…] KG-1 cells, grown in RPMI 1640 culture medium, supplemented with 5% fetal calf serum, were seeded in 96 wells-flat bottom-plates (250000 cells/well). ITF 2357 at various doses was immediately added and after 36 hours tritiated thymidine was added to each well (1 μCi/well) and left therein for the following 12 hours. At the end the cells were collected by a cell harvester and the radioactivity contained in each sample which is directly proportionated to DNA synthesis and therefore to cell proliferation was measured by a liquid scintillation beta counter.
(§4) The effect of different doses of ITF 2357 was measured as percent of inhibition of radioactivity incorporation compared with untreated control cells. […]

Assay [1] concerns A549 (pulmonary carcinoma). The assay is described as above. The note with it: Homo sapiens, 48 hours with compound, read-out: IC50 (50% cell growth inhibition). It is filed as cell-based. As for the experimental part:
as §3
(§5) A549 and MDA-MB435 cells (respectively grown in E-MEM and D-MEM culture medium, supplemented with 10% of fetal calf serum) were seeded on 96 wells-flat bottom-plates (5000 cells/well) and allowed to adhere for 4 hours at 37° C. under 5% CO2 atmosphere. Thereafter ITF 2357 at various doses was added to each well (4 replicates). […]
(§6) […] At the end the cells were collected by a cell harvester and the radioactivity contained in each sample which is directly proportionated to DNA synthesis and therefore to cell proliferation was measured by a liquid scintillation beta counter.
as §4

Assay [2] concerns MDA-MB435 (breast carcinoma). Described as above. The note with it: Homo sapiens, MDA-MB-435, 48 hours with compound, read-out: IC50 (50% cell growth inhibition). It counts as cell-based. How it is done: as §3, §5, §6, §4

On to `CCN(CC)Cc1ccc2cc(COC(=O)Nc3ccc(C(=O)NO)cc3)ccc2c1` [ITF 2357, 4-[6-(diethylaminomethyl)naphth-2-ylmethyloxycarbamoyl)] benzohydroxamic acid hydrochloride], for which the IC50 (usually the concentration needed to halve the response being measured) in the assay on LoVo (Colon carcinoma) came out at 2500 nM; in the assay with Anad (Melanoma), 5700 nM; in the assay with Hep-2 (Head-neck), 1000 nM; with HT-29 (Colon carcinoma), 700 nM; in the assay with Pes41 (Melanoma), 1600 nM; in the assay on Pes43 (Melanoma) it was 1400 nM. Also, the IC50 in the assay on KB (Head-neck) worked out at 640 nM; in the assay on Colo38 (Melanoma), 2380 nM; in the assay with Cal27 (Head-neck), 3400 nM; in the assay on KG-1 (myeloid leukaemia), 552 nM; in assay [1] it was 495 nM; in assay [2] it was 73 nM. Further, in the assay on murine melanoma B16-BL6, the “effect on the tumour growth” value is “dose-dependent inhibitory effect”. Also, in the assay with murine melanoma B16-BL6 (after 15 days of treatment), the “reduction of the volume of the tumoural nodule” value is “about 50%”.
